Test results taken from article PMC4018993, “Use of “one-pot, mix-and-read” peptide-MHC class I tetramers and predictive algorithms to improve detection of cytotoxic T lymphocyte responses in cattle” (Veterinary Research, 2014).
“Also recorded” adds a separate entry of the source.

Legend:
CTL line Bx63 = assay: p-MHC class I tetramer staining of CTL line Bx63; type: cell-based, bovine; details: cell line Bx63; Tp8_379-387-BoLA-3*00101 tetramers
Method: (§1) UFC510024] at 14 000 g for 10 min.

CTL line Bx196 = assay: p-MHC class I tetramer staining of CTL line Bx196; type: cell-based, bovine; details: cell line printed as 196; Tp2_96-104-BoLA-T2c tetramers
Method: as §1

CTL line BB007 [1] = assay: p-MHC class I tetramer staining of CTL line BB007; type: cell-based, bovine; details: peptide as BoLA-6*01301 tetramer, PE-streptavidin; Figure 1
Method: as §1

BoLA-6*01301 = tested on: BoLA-6*01301
Method: Peptides were purchased from Mimotopes (Victoria, Australia) at a purity of 95% and re-suspended in water containing 0.1% acetic acid at a final concentration of 10 mM and diluted to working concentrations in sterile water. The sequences of T. parva peptide epitopes are as in Table 1.

BoLA-1*02301 = assay: p-MHC monomer binding assay, BoLA-1*02301; design: species or system bovine; details: data not shown
Method: (§2) Folding of p-MHC class I complexes was assessed with an ELISA assay as described in [35]. […] After an incubation of 48 h at 18 °C, the complexes were transferred to another 96-well plate pre-coated with streptavidin (Nunc, cat# 436014), which captures biotinylated HC, and incubated for three hours at 4 °C. After washing, the W6/32 monoclonal antibody (Santa Cruz Biotechnology, Texas, USA, cat # SC-32235), which binds to a monomorphic epitope on β2m but only when it is incorporated in p-MHC class I complexes, was added for 1 h at 4 °C. After washing, anti-mouse IgG coupled to peroxidase (Sigma Aldrich, cat # A9917-1ML) was added to the plate followed by incubation for an hour at room temperature and further rounds of washes. Colorimetric change was performed by adding the TMB Plus2 “Ready to Use” Substrate (Kem En Tec, cat # 4395H) for 10 min at room temperature. The reaction was stopped by adding H2SO4 (0.3 M) and optical density was measured using an ELISA plate reader at 450 nm. The concentration of MHC class I and β2m molecules used in such assays is normally in the nanomolar range [35]. […] We are in the process of generating a β2m without the extra start methionine, which should allow use of recombinant molecules in the nanomolar range.

CTL line BV50 = assay: p-MHC class I tetramer staining of CTL line BV50; type: cell-based, bovine
Method: as §1

BoLA-T5 = assay: peptide-BoLA binding assay, BoLA-T5; design: species or system bovine; details: peptide-BoLA binding assays
Method: as §2

BoLA-3*00101 = tested on: BoLA-3*00101; design: method as in PMID 18070892; details: ref [29]; cited from earlier work
BoLA-T7 (bovine) = assay: not stated; preliminary data, not shown
CTL line BB007 [2] = assay: multiple staining of tetramer-positive cells (CD8, FasL, perforin); type: cell-based, bovine
Method: Flow cytometry data were acquired on a BD FACSCanto™ II instrument (BD Biosciences). Compensation controls for PE, PerCP, FITC and APC were included for automatic compensation by the FACS DIVA software. 10 μL BoLA class I tetramer was used for staining cells (between 2 × 10^5 and 5 × 10^5 cells per sample). CD8 staining was done by incubating cells with ILRI monoclonal antibody ILA51 (IgG1) and using rat anti-mouse IgG1-PerCP (BD; cat # 340272) as the secondary antibody. Staining for perforin was done using anti-human-perforin-FITC (BD Pharmingen, San diego, CA, USA, cat# 556577) and staining for Fas-ligand was done using primary rabbit anti-Fas ligand (Santa Cruz biotechnology, cat no. SC-957) and secondary FITC-coupled anti-rabbit IgG antibody (Sigma, MO, USA, cat# F-0382). All staining were conducted in PBS-0.5% BSA except for intracellular staining with anti-perforin where cells were incubated and stained in PBS-0.1%Saponin-10% FBS. Negative control for intracellular staining was done with anti-dansyl-FITC antibody (BD Pharmingen, San diego, CA, USA, cat# 556577). The data were analyzed using the FlowJo software version 7.6.5.

PBMC of BoLA-A18 cattle = assay: ex vivo tetramer staining of PBMC from ITM-vaccinated cattle; details: days 15 to 17 post ITM vaccination, T. parva Muguga 3308; Tp1_214-224-BoLA-6*01301 tetramers; three BoLA-A18 cattle
Method: Three cattle of BoLA-A18 haplotype (typed with PCR primers [forward] 5’-[…]-3’ and [reverse] 5’-[…]-3’ specific for BoLA-6*01301) were vaccinated by ITM [24] using the T. parva strain Muguga 3308. Whole blood was collected from these cattle at the day of vaccination (day 0) and every two days till appearance of tetramer positive cells. PBMC were purified on Ficoll paque density gradients at 2500 rpm for 25 min and 5 × 10^5 PBMC were stained with the Tp1_214-224-BoLA-6*01301 tetramer as described in the flow cytometry procedure. This animal experiment was approved by the ILRI IACUC committee [# 2012.10].

Substance: CGAELNHFL [Tp8_379-387]
- tetramer positive cells (CTL line Bx63): about 3%

Substance: FAQSLVCVL [Tp2_96-104]
- tetramer positive cells (CTL line Bx196): about 65%
- tetramer staining of CTL (in words) (CTL line BB007 [1]): low level smear staining
- binding to BoLA-6*01301 (in words) (BoLA-6*01301): does not bind BoLA-6*01301

Substance: SKADVIAKY [Tp5_87-95]
- p-MHC monomer binding to BoLA-1*02301 (in words) (BoLA-1*02301): confirmed by p-MHC monomer binding assays; also recorded: does indeed bind both BoLA molecules
- co-staining by Tp5_87-95-BoLA-1*02301 (PE) and Tp5_87-95-BoLA-T5 (APC) tetramers (in words) (CTL line BV50; CD8-gated, Figure 7C): both tetramers bind the same population of CTL; also recorded: a single TCR can recognize the Tp5_87-95 epitope presented by either BoLA molecule
- tetramer staining of BV50 (in words) (CTL line BV50; peptide as Tp5_87-95-BoLA-1*02301 tetramer, BV50 and 495 lines tested): The only CTL line stained by this tetramer was BV50
- tetramer staining of BV50 (in words) (CTL line BV50; peptide as Tp5_87-95-BoLA-T5 tetramer, Figure 7B): also stained by Tp5_87-95-BoLA-T5 p-MHC class I tetramers
- peptide-BoLA binding, BoLA-T5 (in words) (BoLA-T5): does indeed bind both BoLA molecules

Substance: TGASIQTTL [Tp4 CTL epitope, control peptide for BoLA-3*00101]
- binding to BoLA-3*00101 (in words) (BoLA-3*00101): known binder to BoLA-3*00101

Substance: Tp7_(206-214) peptide
- Kd (BoLA-T7 (bovine)): 252 nM

Substance: Tp7_(207-214) peptide
- Kd (BoLA-T7 (bovine)): 142 nM

Substance: VGYPKVKEEML [Tp1_214-224]
- CD8 and perforin, triple staining (CTL line BB007 [2]; Figure 4D): tetramer-positive cells are also positive for CD8 and perforin
- CD8 expression of Tp1 tetramer positive cells (CTL line BB007 [2]; Tp1_214-224-BoLA-6*01301 tetramer, Figure 4A): all Tp1 positive cells in the cell line BB007 were CD8-positive
- FasL expression of Tp1 tetramer positive cells (CTL line BB007 [2]; Tp1_214-224-BoLA-6*01301 tetramer, Figure 4B): FasL-positive
- perforin expression of Tp1 tetramer positive cells (CTL line BB007 [2]; Tp1_214-224-BoLA-6*01301 tetramer, Figure 4C): perforin-positive
- frequency of Tp1 tetramer positive cells in PBMC (PBMC of BoLA-A18 cattle): about 1%
- tetramer staining of CTL (in words) (CTL line BB007 [1]): staining of a clear distinct cell population

Substance: YMYRVWSPL
- tetramer staining of CTL (in words) (CTL line BB007 [1]): very low staining
- binding to BoLA-6*01301 (in words) (BoLA-6*01301): binds to BoLA-6*01301
- affinity for BoLA-6*01301 (BoLA-6*01301; control peptide from a bank of random nonamer peptides, binding assay as described in [34]): ≥ 1 nM
